Data reported in paper PMC11079064, “Discovery of a brain penetrant small molecule antagonist targeting LPA1 receptors to reduce neuroinflammation and promote remyelination in multiple sclerosis” (Scientific Reports, 2024).
Like-named read-outs stand apart in the source and are kept apart here.

Tests used:
LPA1 = molecular target: T1, LPA1 (Mus musculus, UniProt P61793); test: In vivo brain binding of [3H]-OPC3497 radioligand; conditions: PIPE-791 dosed orally 2 h prior; 5 and 30 minutes after radioligand
T1 construct: from tissue; host or cells: mouse brain (homogenate; forebrain of dosed C57BL6/N mice in the in vivo studies)
T1 sequence (P61793 whole entry): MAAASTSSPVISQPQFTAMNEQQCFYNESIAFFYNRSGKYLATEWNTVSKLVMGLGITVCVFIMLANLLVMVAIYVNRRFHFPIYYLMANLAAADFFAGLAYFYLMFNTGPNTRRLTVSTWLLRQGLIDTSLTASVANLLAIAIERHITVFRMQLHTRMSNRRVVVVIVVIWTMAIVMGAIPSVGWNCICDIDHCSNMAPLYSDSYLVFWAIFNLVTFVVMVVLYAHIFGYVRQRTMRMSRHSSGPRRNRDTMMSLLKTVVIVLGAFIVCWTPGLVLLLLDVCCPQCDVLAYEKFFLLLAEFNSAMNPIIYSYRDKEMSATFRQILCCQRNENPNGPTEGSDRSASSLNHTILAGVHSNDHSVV
Method: Supplemental Figure 3. OPC3497 is a suitable radioligand for evaluating LPA1 receptor occupancy. Following IV administration, [^3H]-OPC3497 binding in mouse brain increased rapidly, peaked 5 minutes post-dose and declined sharply over the evaluation period (2 h).

[1] = system: mouse cortical brain slices; test: Lysolecithin-treated mouse organotypic slice culture, MBP and Caspr immunostaining; assay type: cell-based; conditions: then 5 days treatment
Method: Slices were also evaluated using a histological endpoint. […] Caspr clustering was used as a marker for nodes of Ranvier formation which implicates the presence of functional axons that have responded to myelination[39],[40].
Immunohistological evaluation of MBP and Caspr in mouse brain slice culture: Brain slices were cultured as described above. After compound treatment, slices were fixed in 4% PFA for 30 m, blocked in 10% donkey serum, 0.2% Triton X-100, followed by overnight incubation in primary antibodies in blocking solution. Antibodies used were MBP (rat, 1:500, Millipore, Temecula, CA), Caspr (rabbit 1:250 Abcam, Fremont, CA) Tuj1 (mouse, 1:500, Biolegend, San Diego, CA). Slices were washed with 3 × 15 m PBS followed by incubation with secondary antibodies (anti-rat, Alexa488; anti-rabbit, Alexa568, anti-mouse, Alexa647, Hoechst counterstain) in blocking buffer. All secondary antibodies were produced in donkey (Invitrogen, Carlsbad, CA, Carlsbad, CA) and used at 1:250. Filters were excised from insert, mounted with Fluoromount (Millipore Sigma, St. Louis) on a microscope slide and coverslipped. […] Image analysis was performed using ImageJ. MBP was expressed as MBP surface area normalized to Hoechst cell count; Caspr was expressed as the number of Caspr puncta normalized to Tuj1 intensity.

[2] = system: rat brain meningeal fibroblasts; test: LPA-induced activation of rat meningeal fibroblasts (COL1+ area); assay type: cell-based; conditions: LPA stimulation, read-out: IC50 of inhibition of increase in COL1+ area
Method: Recent work from Dorrier et al., has implicated persistent fibrotic scarring in the CNS in the mouse EAE model and that the contributing cells were of meningeal origin. […] We cultured primary rat or human brain meningeal fibroblasts and applied 10 µM LPA to induce activation. Upon LPA stimulation, we saw a change in morphology that could be quantified as a change in collagen I (COL1^+) area.
Meningeal fibroblasts were isolated from postnatal day 8 CD-1 rats (Charles River Labs, Willington, MA). Meninges were peeled off and digested in Accutase (Thermo Fisher, Waltham, MA, Waltham, MA) for 20 min at room temperature. […] was added to stop protease activity. Digested meninges were dissociated by trituration and cells were strained through a 40 µm nylon mesh and spun down at 800 g for 15 min. The cell pellet was resuspended in DMEM + 10% FBS and plated in a T-75 flask (Corning) for 10 days. Cells were lifted with Accutase and replated into 96-well Perkin Elmer, Boston, MA Viewplates, at 15k per well. The next day, cells were starved in DMEM for 8 h. […] 1 µM LPA or vehicle were added for 5 h. […] Primary antibody was detected using a goat-anti-mouse Alexa488 secondary antibody (Invitrogen, Carlsbad, CA, 1:250) with Hoechst. Wells were imaged on Nikon A1R confocal and Col1^+ area measured normalized to cell number (Hoechst count). […]

MOG-EAE mouse model = test: MOG-EAE mouse model, g-ratios by electron microscopy; assay type: in vivo
Method: In control, non-EAE mice, 90.9% of the axons were myelinated (g-ratio < 1). In vehicle treated MOG-EAE mice, only 73.4% of axons were myelinated.
Remyelinated axons canonically have thin myelin[41]. As such, we examined axons with g-ratios ≥ 0.8 but less than 1 as a surrogate measure of a remyelinating axon.
To confirm this, g-ratios in the optic nerve were similarly quantified. […] In non-MOG-EAE mice, 86.4% of the axons were myelinated. […] At 0.3 mg/kg, 85.5% were myelinated. When thinly myelinated axons were quantified, 30.2% in the MOG-treated vehicle group were observed, compared to 50.7% in the non-MOG control.
Study termination was the last day that clinical scores were determined for all study animals (Day 24). Since VEP recordings required several days (Days 21–24), oral dosing continued through perfusion, which was performed on Day 24 or Day 25. On Day 24 or 25, and following completion of VEP recordings, mice were deeply anesthetized with isoflurane anesthesia and whole body perfused with EM grade Karnovsky’s fixative (3% glutaraldehyde, 2% paraformaldehyde in 0.1 M phosphate buffer, pH 7.4; part # 15732-10; Electron Microscopy Sciences, Hatfield, PA). Spinal columns and optic nerves were collected and stored in fixative at 4 °C until further processing. After at 3–5 days in fixative, spinal cords were isolated and dissected from the vertebrae. Approximately 2 mm of the most caudal lumbar region was trimmed and segmented and, along with the optic nerves, shipped to Charles River Laboratories (Durham, NC) for processing for and imaging by electron microscopy.
The blocks were polymerized overnight at ~ 85 °C, and semi-thin sections (~ 1 μm, one per tissue) prepared and stained with toluidine blue using standard protocols. Semi-thin images were evaluated, and the most caudal region was identified as the region of focus for thin sections. Thin sections of ~ 100 nm were prepared using standard protocols and the grids were imaged at 1500 × on a JEOL JEM-1400 + transmission electron microscope fitted with an AMT 16 MP digital camera system. The direct magnification used was 1500 × or 4000 × for spinal cord and optic nerve, respectively.
Digital EM images were analyzed using ImageJ (NIH, Bethesda, MD) measure the circumference of the axon and, when present, the myelin sheath, and g-ratios were calculated. For spinal cord analysis, 4 representative images were analyzed per animal and the results pooled, and the percentages calculated from the animal total. For optic nerve analysis, 1 representative image was analyzed per optic nerve and each optic nerve was treated as a separate data point.

effect on total [3H]-OPC3497 binding in brain (LPA1): significantly reduced
EC50 ([1]; read-out: EC50 of MBP+ area increase): 74 nM
EC50 ([1]; read-out: EC50 of increase in number of Caspr puncta): 17.9 nM
SMILES: COc1ccc(NC(=O)N(c2ccccc2C(C)C)C2CCC(C(=O)O)CC2)c(OC(F)F)n1 (centres unmarked) [PIPE-791]
IC50 [2]: 31.8 nM
myelinated axons, optic nerve (MOG-EAE mouse model; 0.3 mg/kg): 85.5%
thinly myelinated axons, optic nerve (MOG-EAE mouse model; 0.3 mg/kg): 44.7%
myelinated axons, optic nerve (MOG-EAE mouse model; 3 mg/kg): 86.1%
thinly myelinated axons, optic nerve (MOG-EAE mouse model; 3 mg/kg): 50.6%
